Read-outs that look alike come from different tables or passages of the source. Starred links: 1 amine or outer side, 2 acyl side, 3 side chain; linkers in the order of their positions; H or OH if unused. Positions of bridges follow the written chain, without caps; N, C: chain ends. Non-standard residues stand in square brackets, D forms with d. Residues, ends and D or L forms follow the SMILES beside them. Groups on a side chain read outwards from the residue. *: point of attachment. X2 = C[N+](C)(CCNC(=O)COCCOCCNC(=O)COCCOCCNC(=O)CC[C@H](NC(=O)CCCCCCCCCCCCCCCCC(=O)O)C(=O)O)CC(=O)*; X6 = C[N+](C)(CCNC(=O)CCCCCCCCCCCCCCCCC(=O)O)CC(=O)*; X5 = O=C(O)CCCCCCCCCCCCCCCCC(=O)N[C@@H](CCN*)C(=O)O; Trp(7-Me) = Cc1cccc2c(C[C@H](N)C(=O)O)c[nH]c12; C20 diacid = O=C(O)CCCCCCCCCCCCCCCCCCC(=O)*; γGlu = O=C(O)[C@H](CCC(=O)[*:2])N[*:1]; 2Nal = N[C@@H](Cc1ccc2ccccc2c1)C(=O)O; AEF = NCCOc1ccc(C[C@H](N)C(=O)O)cc1; Trx = NC[C@H]1CC[C@H](C(=O)O)CC1; 3Pal = N[C@@H](Cc1cccnc1)C(=O)O; Pen = CC(C)(S)[C@H](N)C(=O)O; Thp = NC1(C(=O)O)CCOCC1; AEEA = NCCOCCOCC(=O)O; Sar = CNCC(=O)O
Molecular target: T1, IL-23R (Homo sapiens, UniProt Q5VWK5)
T1 construct: HEK293 cells containing IL-23R, IL-12RP31 and a firefly luciferase reporter gene driven by a STAT-inducible promoter (Promega); host or cells: HEK293
T1 sequence (Q5VWK5 24-629): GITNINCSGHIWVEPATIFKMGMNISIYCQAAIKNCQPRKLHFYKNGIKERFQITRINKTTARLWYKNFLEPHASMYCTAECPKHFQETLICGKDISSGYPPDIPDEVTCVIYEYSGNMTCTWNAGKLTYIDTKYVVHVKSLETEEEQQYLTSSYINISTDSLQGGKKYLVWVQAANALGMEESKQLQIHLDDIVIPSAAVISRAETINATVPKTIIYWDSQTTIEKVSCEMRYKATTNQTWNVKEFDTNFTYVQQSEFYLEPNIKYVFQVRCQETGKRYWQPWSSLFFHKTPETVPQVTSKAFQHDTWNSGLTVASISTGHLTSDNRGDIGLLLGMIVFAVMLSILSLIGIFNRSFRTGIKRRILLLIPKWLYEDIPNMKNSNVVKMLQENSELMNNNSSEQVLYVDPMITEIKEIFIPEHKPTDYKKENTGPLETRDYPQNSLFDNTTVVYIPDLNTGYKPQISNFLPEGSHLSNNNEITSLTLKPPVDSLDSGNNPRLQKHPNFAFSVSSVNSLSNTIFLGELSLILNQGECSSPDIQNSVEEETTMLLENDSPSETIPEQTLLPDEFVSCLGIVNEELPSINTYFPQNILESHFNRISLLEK
Experiment: IL23R Reporter Assay
Type: cell-based
Outline: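 Luminescence from BioGlo, read after cells were moved to 20 °C, followed a 5 h incubation at 37 °C, 5% CO2 with DMSO-diluted test compounds.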

| IC50 | IC50 (IL23R reporter assay, HEK293 cells with IL-23R and STAT-inducible luciferase reporter, 10 ng/mL IL-23, 5 h, Table 5b 'IL-23 Binding Data') | Compound |
| --- | --- | --- |
| 0.073 nM |  | CC(=O)NCCCC[C@@H]1NC(=O)[C@H](Cc2c[nH]c3c(C)cccc23)NC(=O)[C@H]([C@@H](C)O)NC(=O)[C@H](CC(N)=O)NC(=O)[C@@H](NC(C)=O)C(C)(C)SSC(C)(C)[C@@H](C(=O)N[C@@H](Cc2ccc(OCCN)cc2)C(=O)N[C@@H](Cc2ccc3ccccc3c2)C(=O)NC2(C(=O)N[C@@H](CCCCNC(=O)COCCOCCNC(=O)COCCOCCNC(=O)CC[C@H](NC(=O)C[N+](C)(C)CCNC(=O)CCCCCCCCCCCCCCCCC(=O)O)C(=O)O)C(=O)N[C@@H](CC(N)=O)C(=O)N[C@@H](Cc3cccnc3)C(=O)N(C)CC(N)=O)CCOCC2)NC1=O [Example 123, MeCO-Pen*-N-T-7MeW-K(Ac)-Pen*-AEF-2Nal-THP-K(PEG2PEG2 gE SP6 C18OH)-N-3Pya-Sar-CONH2] (Ac-[Pen]NT[Trp(7-Me)]K(Ac)[Pen][AEF][2Nal][Thp]K([AEEA-AEEA-γGlu-X6])N[3Pal][Sar]-NH2; disulfide 1-6) |
| 0.083 nM |  | CC(=O)NCCCC[C@@H]1NC(=O)[C@H](Cc2c[nH]c3c(C)cccc23)NC(=O)[C@H]([C@@H](C)O)NC(=O)[C@H](CC(N)=O)NC(=O)[C@@H](NC(C)=O)C(C)(C)SSC(C)(C)[C@@H](C(=O)N[C@@H](Cc2ccc(OCCN)cc2)C(=O)N[C@@H](Cc2ccc3ccccc3c2)C(=O)NC2(C(=O)N[C@@H](CCCCNC(=O)C[N+](C)(C)CCNC(=O)COCCOCCNC(=O)COCCOCCNC(=O)CC[C@H](NC(=O)CCCCCCCCCCCCCCCCC(=O)O)C(=O)O)C(=O)N[C@@H](CC(N)=O)C(=O)N[C@@H](Cc3cccnc3)C(=O)N(C)CC(N)=O)CCOCC2)NC1=O [Example 124, MeCO-Pen*-N-T-7MeW-K(Ac)-Pen*-AEF-2Nal-THP-K(SP6 PEG2PEG2gE C18OH)-N-3Pya-Sar-CONH2] (Ac-[Pen]NT[Trp(7-Me)]K(Ac)[Pen][AEF][2Nal][Thp]K(X2)N[3Pal][Sar]-NH2; disulfide 1-6) |
| 0.1 nM |  | CC(=O)NCCCC[C@@H]1NC(=O)[C@H](Cc2c[nH]c3c(C)cccc23)NC(=O)[C@H]([C@@H](C)O)NC(=O)[C@H](CC(N)=O)NC(=O)[C@@H](NC(C)=O)C(C)(C)SSC(C)(C)[C@@H](C(=O)N[C@@H](Cc2ccc(OCCN)cc2)C(=O)N[C@@H](Cc2ccc3ccccc3c2)C(=O)NC2(C(=O)N[C@@H](CCCCNC(=O)COCCOCCNC(=O)COCCOCCNC(=O)CC[C@H](NC(=O)[C@H]3CC[C@H](CNC(=O)CCCCCCCCCCCCCCCCCCC(=O)O)CC3)C(=O)O)C(=O)N[C@@H](CC(N)=O)C(=O)N[C@@H](Cc3cccnc3)C(=O)N(C)CC(N)=O)CCOCC2)NC1=O [Example 128, MeCO-Pen*-N-T-7MeW-K(Ac)-Pen*-AEF-2Nal-THP-K(PEG2PEG2gETrxC20OH)-N-3Pya-Sar-CONH2] (Ac-[Pen]NT[Trp(7-Me)]K(Ac)[Pen][AEF][2Nal][Thp]K([AEEA-AEEA-γGlu-Trx-C20 diacid])N[3Pal][Sar]-NH2; disulfide 1-6) |
| 0.24 nM |  | CC(=O)NCCCC[C@@H]1NC(=O)[C@H](Cc2c[nH]c3c(C)cccc23)NC(=O)[C@H]([C@@H](C)O)NC(=O)[C@H](CC(N)=O)NC(=O)[C@@H](NC(=O)[C@@H](CCCNC(=N)N)NC(C)=O)C(C)(C)SSC(C)(C)[C@@H](C(=O)N[C@@H](Cc2ccc(OCCN)cc2)C(=O)N[C@@H](Cc2ccc3ccccc3c2)C(=O)NC2(C(=O)N[C@@H](CCCCNC(C)=O)C(=O)N[C@@H](CC(N)=O)C(=O)N[C@@H](Cc3cccnc3)C(=O)N(C)CC(=O)NCCOCCOCC(=O)NCCOCCOCC(=O)NCC[C@H](NC(=O)CCCCCCCCCCCCCCCCC(=O)O)C(=O)O)CCOCC2)NC1=O [Example 129, MeCO-r-Pen*-N-T-7MeW-K(Ac)-Pen*-AEF-2Nal-THP-K(Ac)-N-3Pya-Sar-PEG2PEG2gDabC18OH-COOH] (Ac-[dR][Pen]NT[Trp(7-Me)]K(Ac)[Pen][AEF][2Nal][Thp]K(Ac)N[3Pal][Sar][AEEA][AEEA]-X5; disulfide 2-7) |
| 0.037 nM |  | CC(=O)NCCCC[C@@H]1NC(=O)[C@H](Cc2c[nH]c3c(C)cccc23)NC(=O)[C@H]([C@@H](C)O)NC(=O)[C@H](CC(N)=O)NC(=O)[C@@H](NC(C)=O)C(C)(C)SSC(C)(C)[C@@H](C(=O)N[C@@H](Cc2ccc(OCCN)cc2)C(=O)N[C@@H](Cc2ccc3ccccc3c2)C(=O)NC2(C(=O)N[C@@H](CCCCNC(=O)COCCOCCNC(=O)COCCOCCNC(=O)CC[C@H](NC(=O)[C@H](CNC(=O)CCCCCCCCCOc3cccc(C(=O)O)c3)NC(=O)CCCCCCCCCOc3cccc(C(=O)O)c3)C(=O)O)C(=O)N[C@@H](CC(N)=O)C(=O)N[C@@H](Cc3cccnc3)C(=O)N(C)CC(N)=O)CCOCC2)NC1=O [Example 134, MeCO-Pen*-N-T-7MeW-K(Ac)-Pen*-AEF-2Nal-THP-K(PEG2PEG2gEDAP(mXOH)2)-N-3Pya-Sar-CONH2] |
|  | 1280 nM | MeCO-r-Pen(3)-N15-T-7MeW-K(Ac)-Pen(3)-AEF-2Nal-THP-E-N15-3Pya-Sar-K(PEG2PEG2gEC18OH)-CONH2 [Compound 354] |

Reference: patent US12478617B2, “Lipidated peptide inhibitors of interleukin-23 receptor” (JANSSEN BIOTECH, INC., priority 2021, dated 2025)
